# Source: patent US7138361B2, “Herbicidal heterocycles” (E. I. du Pont de Nemours and Company, priority 2000, dated 2006)
# Legend:
# Assay type in all cases: in vivo
# [1] = system: cocklebur (Xanthium strumarium); experiment: Test B postemergence; conditions: 13 to 15 days
# Summary of the method: (§1)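 Post-treatment, species sat 13–15 days under greenhouse conditions before visual scoring against controls, 0 (no effect) through 100 (complete control). Application preemergence to sown seeds or postemergence at 1- to 4-leaf stage, using a non-phytotoxic solvent/surfactant formulation.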
# [2] = system: crabgrass (Digitaria sanguinalis); experiment: Test B postemergence; conditions: 13 to 15 days
# Summary of the method: as §1
# [3] = system: lambsquarters (Chenopodium album); experiment: Test B postemergence; conditions: 13 to 15 days
# Summary of the method: as §1
# [4] = system: wild oat (Avena fatua); experiment: Test B postemergence; conditions: 13 to 15 days
# Summary of the method: as §1
# [5] = system: Nightshade; experiment: Test C preemergence
# [6] = system: Sunflower; experiment: Test C preemergence; conditions: Rate 125 g/ha; scale 0 to 100, 0 no effect, 100 complete control
# [7] = system: Surinam grass (Brachiaria decumbens); experiment: Test C preemergence; conditions: for Plant response rating (0 to 100), Surinam grass: visual evaluation after 12 to 14 days
# Summary of the method: (§2)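 Visual injury scores of 0–100, with 100 meaning complete control, were given relative to controls after 12–14 days in the greenhouse. Treatments used a surfactant-containing non-phytotoxic solvent formulation, sprayed on seeded pots preemergence or on 1–4-leaf plants of 2–18 cm postemergence.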
# [8] = system: bermudagrass (Cynodon dactylon); experiment: Test C preemergence; conditions: for Plant response rating (0 to 100 where 0 is no effect and 100 is complete control), Bermudagrass: visual evaluation after 12 to 14 days
# Summary of the method: as §2
# [9] = system: cocklebur (Xanthium strumarium); experiment: Test C preemergence; conditions: for Plant response rating (0 to 100), Cocklebur: visual evaluation after 12 to 14 days
# Summary of the method: as §2
# [10] = system: common ragweed (Ambrosia elatior); experiment: Test C preemergence
# Summary of the method: as §2
# [11] = system: corn (Zea mays); experiment: Test C preemergence; conditions: for Plant response rating (0 to 100), Corn: visual evaluation after 12 to 14 days
# Summary of the method: as §2
# [12] = system: giant foxtail (Setaria faberii); experiment: Test C preemergence; conditions: for Plant response rating (0 to 100), Foxtail, Giant: visual evaluation after 12 to 14 days
# Summary of the method: as §2
# [13] = system: johnsongrass (Sorghum halepense); experiment: Test C preemergence; conditions: for Plant response rating (0 to 100), Johnsongrass: visual evaluation after 12 to 14 days
# Summary of the method: as §2
# [14] = system: kochia (Kochia scoparia); experiment: Test C preemergence; conditions: for Plant response rating (0 to 100), Kochia: visual evaluation after 12 to 14 days
# Summary of the method: as §2
# [15] = system: lambsquarters (Chenopodium album); experiment: Test C preemergence
# Summary of the method: as §2
# [16] = system: pigweed (Amaranthus retroflexus); experiment: Test C preemergence
# Summary of the method: as §2
# [17] = system: soybean (Glycine max); experiment: Test C preemergence
# Summary of the method: as §2
# [18] = system: velvetleaf (Abutilon theophrasti); experiment: Test C preemergence
# Summary of the method: as §2
# [19] = system: woolly cupgrass (Eriochloa villosa); experiment: Test C preemergence; conditions: for Plant response rating (0 to 100), Cupgrass, Woolly: visual evaluation after 12 to 14 days
# Summary of the method: as §2
# [20] = system: Sunflower; experiment: Test C preemergence; conditions: Rate 500 g/ha, visual evaluation after 12 to 14 days
# [21] = Rate 125 g/ha, scale 0 (no effect) to 100 (complete control)
# [22] = Rate 500 g/ha, scale 0 to 100, 0 is no effect, 100 is complete control
# [23] = Rate 125 g/ha, scale 0 to 100, 0 no effect, 100 complete control
# [24] = preemergence, Rate 62 g/ha, scale 0 to 100
# [25] = preemergence, Rate 500 g/ha, visual evaluation after 12 to 14 days
# [26] = preemergence, Rate 250 g/ha, scale 0 to 100, 0 no effect, 100 complete control
compound,measurement,setting,value
COc1cccc(N2CCC(n3ccc(C(C)(C)C)n3)C2=O)c1 (centres unmarked) [Compound 87],"Plant response rating, Cocklebur",[1]; [21],0
same,"Plant response rating, Cocklebur",[1]; [22],0
same,"Plant response rating, Crabgrass",[2]; [21],0
same,"Plant response rating, Crabgrass",[2]; [22],0
same,"Plant response rating, Lambsquarters",[3]; [21],0
same,"Plant response rating, Lambsquarters",[3]; [22],50
same,"Plant response rating, Wild Oat",[4]; [21],0
same,"Plant response rating, Wild Oat",[4]; [22],0
same,"Plant response rating, Nightshade","[5]; Rate 62 g/ha, scale 0 to 100",0
same,"Plant response rating, Nightshade",[5]; [23],10
same,"Plant response rating, Nightshade","[5]; Rate 250 g/ha, scale 0 to 100, 0 no effect, 100 complete control",60
same,"Plant response rating, Sunflower",[6],20
same,"Plant response rating, Surinam grass",[7]; [23],100
same,"Plant response rating, Surinam grass",[7]; [24],40
same,"Plant response rating (0 to 100), Surinam grass","[7]; preemergence, Rate 250 g/ha",100
same,"Plant response rating (0 to 100), Surinam grass","[7]; preemergence, Rate 500 g/ha",100
same,"Plant response rating, Bermudagrass",[8]; [23],100
same,"Plant response rating, Bermudagrass",[8]; [24],100
same,"Plant response rating (0 to 100 where 0 is no effect and 100 is complete control), Bermudagrass","[8]; preemergence, Rate 250 g/ha",100
same,"Plant response rating (0 to 100 where 0 is no effect and 100 is complete control), Bermudagrass","[8]; preemergence, Rate 500 g/ha",100
same,"Plant response rating, Cocklebur",[9]; [23],0
same,"Plant response rating, Cocklebur",[9]; [24],0
same,"Plant response rating (0 to 100), Cocklebur","[9]; preemergence, Rate 250 g/ha",0
same,"Plant response rating (0 to 100), Cocklebur","[9]; preemergence, Rate 500 g/ha",0
same,"Plant response rating, Ragweed, Common",[10]; [23],0
same,"Plant response rating, Ragweed, Common",[10]; [24],0
same,"Plant response rating (0 to 100), Ragweed, Common",[10]; [25],0
same,"Plant response rating, Ragweed, Common",[10]; [26],0
same,"Plant response rating, Corn",[11]; [23],70
same,"Plant response rating, Corn",[11]; [24],40
same,"Plant response rating (0 to 100), Corn","[11]; preemergence, Rate 250 g/ha",70
same,"Plant response rating (0 to 100), Corn","[11]; preemergence, Rate 500 g/ha",80
same,"Plant response rating, Foxtail, Giant",[12]; [23],100
same,"Plant response rating, Foxtail, Giant",[12]; [24],30
same,"Plant response rating (0 to 100), Foxtail, Giant","[12]; preemergence, Rate 250 g/ha",100
same,"Plant response rating (0 to 100), Foxtail, Giant","[12]; preemergence, Rate 500 g/ha",100
same,"Plant response rating, Johnsongrass",[13]; [23],90
same,"Plant response rating, Johnsongrass",[13]; [24],90
same,"Plant response rating (0 to 100), Johnsongrass","[13]; preemergence, Rate 250 g/ha",100
same,"Plant response rating (0 to 100), Johnsongrass","[13]; preemergence, Rate 500 g/ha",100
same,"Plant response rating, Kochia",[14]; [23],100
same,"Plant response rating, Kochia",[14]; [24],100
same,"Plant response rating (0 to 100), Kochia","[14]; preemergence, Rate 250 g/ha",100
same,"Plant response rating (0 to 100), Kochia","[14]; preemergence, Rate 500 g/ha",100
same,"Plant response rating, Lambsquarters",[15]; [23],100
same,"Plant response rating, Lambsquarters",[15]; [24],100
same,"Plant response rating (0 to 100), Lambsquarters",[15]; [25],100
same,"Plant response rating, Lambsquarters",[15]; [26],100
same,"Plant response rating, Pigweed",[16]; [23],0
same,"Plant response rating, Pigweed",[16]; [24],0
same,"Plant response rating (0 to 100), Pigweed",[16]; [25],100
same,"Plant response rating, Pigweed",[16]; [26],100
same,"Plant response rating, Soybean",[17]; [23],20
same,"Plant response rating, Soybean",[17]; [24],0
same,"Plant response rating (0 to 100), Soybean",[17]; [25],30
same,"Plant response rating, Soybean",[17]; [26],20
same,"Plant response rating, Velvetleaf",[18]; [23],10
same,"Plant response rating, Velvetleaf",[18]; [24],10
same,"Plant response rating (0 to 100), Velvetleaf",[18]; [25],20
same,"Plant response rating, Velvetleaf",[18]; [26],10
same,"Plant response rating, Cupgrass, Woolly",[19]; [23],100
same,"Plant response rating, Cupgrass, Woolly",[19]; [24],90
same,"Plant response rating (0 to 100), Cupgrass, Woolly","[19]; preemergence, Rate 250 g/ha",100
same,"Plant response rating (0 to 100), Cupgrass, Woolly","[19]; preemergence, Rate 500 g/ha",100
same,"Plant response rating (0 to 100), Sunflower",[20],30
